From patent publication US20040127416A1, “Therapeutic bioconjugates” (priority 2002, published 2004)
Values belong to the molecule of their own block, whether it stands above or below them. Ends that are not written are not given here. glycidyl methacrylate‑derivatized dextran = not defined here

Legend:
[1] = test system: TNF-α stimulated, ICAM-expressing BECs; test: inflammatory cell adhesion assay: U937 monocyte adhesion to TNF-α stimulated bovine endothelial cell monolayers; type: cell-based; details: U937 cells on TNF-α stimulated
Description: This experiment illustrates the activity of the bioconjugate, whose synthesis was described above, in the inflammatory cell adhesion assay. Bovine endothelial cell (BEC) monolayers were established in 24-well culture dishes. At 24 h prior to the assay, normal medium (Minimal Eagle's Medium with 10% fetal bovine serum, 1% ABAM and 1% L-glutamine) (Gibco, CA, USA) was replaced with medium containing tumor necrosis factor α (TNF-α, 10 ng/ml). Following the 24 h incubation period, each sample well received a medium change.
Treated sample groups received medium containing 6% dextran bioconjugate or 6% bioconjugate. […] Two other control treatments were given: a medium change with no dextran or peptide was given to a sample group pretreated with TNF-α, and a positive control that was not pretreated with TNF-α. After a 30-minute incubation period, the medium in all wells was replaced with medium containing the human monocyte cell line U937 (1×10^5/ml) (ATCC, Manassas, Va.). All samples were incubated for another 30 minutes, then washed three times with PBS to remove non-adherent cells. The average number of adherent cells per 100× microscopic field was determined for each sample group.

inflammatory HUVECs = test: in vitro ICAM-1-mediated leukocyte cell adhesion assay: U937 adhesion to TNF-α treated HUVEC monolayers; type: cell-based, human; details: TNF-α (10 ng/ml, 24 h) treated HUVECs; medium containing 6% dextran bioconjugate, 30 min; n=4 wells
Description: To assess the effect of these peptide-dextran bioconjugates on inflammatory cell adhesion, the following in vitro ICAM-1-mediated leukocyte cell adhesion assay was performed. HUVEC monolayers were established in 24-well culture dishes. At 24 h prior to the assay, normal culture media were replaced with medium containing TNF-α (10 ng/ml). Following the 24 h incubation period, each sample well received a medium change. Treated sample groups received medium containing 6% dextran bioconjugate (dextran conjugated to the A domain peptide CNAFKILVVITDGEK). Untreated control samples received normal medium. Negative sham control samples received medium containing dextran conjugate with a scrambled A domain sequence (KCENGADFTKIIVLV). All samples were then incubated for 30 min prior to the adhesion assay. Medium was removed from all wells following the 30 min incubation and replaced with medium containing U937 monocytic cells (1×10^5/ml). All samples were then incubated for another 30 min. After this incubation period, samples were washed three times with PBS to remove non-adherent monocytes. The samples were then fixed, and an average number of adherent monocytes per 100× microscopic field was determined for each sample group. Statistical comparisons between sample groups (n=4 replicate wells per group) were performed using a student's t-test.

[2] = molecular target: T1, ICAM-1 expressed on TNF-alpha stimulated bovine endothelial cells (BEC) (bovine, UniProt Q95132 28-535); test: cell-based or functional assay
T1 sequence (looked up): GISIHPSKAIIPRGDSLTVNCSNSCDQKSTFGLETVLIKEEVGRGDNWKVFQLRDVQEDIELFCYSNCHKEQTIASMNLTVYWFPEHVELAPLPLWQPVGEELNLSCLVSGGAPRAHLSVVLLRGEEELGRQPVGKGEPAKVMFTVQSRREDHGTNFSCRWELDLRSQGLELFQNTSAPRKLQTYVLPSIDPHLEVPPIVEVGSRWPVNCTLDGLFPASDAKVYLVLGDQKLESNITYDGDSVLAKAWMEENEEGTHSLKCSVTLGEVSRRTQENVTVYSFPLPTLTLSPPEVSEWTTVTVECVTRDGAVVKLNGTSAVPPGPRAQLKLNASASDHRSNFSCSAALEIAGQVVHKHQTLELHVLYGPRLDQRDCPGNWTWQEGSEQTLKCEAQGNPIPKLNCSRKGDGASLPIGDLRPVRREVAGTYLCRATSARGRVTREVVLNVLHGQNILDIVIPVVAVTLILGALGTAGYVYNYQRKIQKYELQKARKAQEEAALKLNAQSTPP

Molecule: CTVDLKFGIKNIEAV [inactive peptide, reference compound]
- effect on monocyte adhesion (in words) [1]: comparable to no treatment after the TNF-α activation

Molecule: active peptide conjugate: methacroylated dextran (about 70 kD) coupled to synthetic peptide CNAFKILVVITDGEK, based on the ICAM-1-binding portion of integrin αmβ2 (CD11b/CD18) (also: coupled to methacroylated dextran (about 70 kD), site not given here)
- effect on monocyte adhesion (in words) ([1]; listed as active dextran bioconjugate): prevented monocyte adhesion to the extent observed in non-stimulated BECS
- effect on monocyte adhesion (in words) ([1]; listed as bioconjugate): reducing monocyte adhesion to levels observed in control, non-stimulated cells
- U937 cell adhesion reduced by (inflammatory HUVECs): 87.7%

Molecule: inactive peptide conjugate: dextran bioconjugate containing an inactive scrambled sequence of the A-domain peptide, CTVDLKFGIKNIEAV; sham control (also: conjugated to dextran, attachment site not given here) [reference compound]
- effect on monocyte adhesion (in words) [1]: inhibited cell adhesion poorly

Next, values leading:

- relative monocyte adherence (U937 cells on TNF-alpha activated BEC; negative control = 100%) [2]: 95.7%
B1: inactive scrambled peptide CTVDLKFGIKNIEAV, unconjugated (peptide)
peptide: CTVDLKFGIKNIEAV

- relative monocyte adherence (U937 cells on TNF-alpha activated BEC; negative control = 100%) [2]: 55.6%
B2: dextran bioconjugate containing the inactive scrambled A-domain peptide CTVDLKFGIKNIEAV (peptide)
peptide: CTVDLKFGIKNIEAV
modifications: not fully specified (residue 1); also: Cys sulfhydryl coupled to glycidyl methacrylate-derivatized dextran (about 70 kD)

- relative monocyte adherence (U937 cells on TNF-alpha activated BEC; negative control = 100%) [2]: 3.34%
B3: dextran/peptide bioconjugate: synthetic A domain peptide CNAFKILVVITDGEK coupled to methacroylated (activated) dextran (peptide)
peptide: C(glycidyl methacrylate‑derivatized dextran)NAFKILVVITDGEK
modifications: reading uncertain; also: polyvalent conjugate on dextran, peptides per dextran not given here

- relative monocyte adherence (U937 cells on TNF-alpha activated BEC; negative control = 100%) [2]: 56.3%
B4: synthetic peptide CNAFKILVVITDGEK, unconjugated (peptide)
peptide: CNAFKILVVITDGEK
